{"source": "patent US10925876B2", "about": "“Methods for using triazolo-pyrazinyl soluble guanylate cyclase activators in fibrotic disorders” (Merck Sharp & Dohme Corp., priority 2016, dated 2021)", "data": [{"molecular_target": "T1, sGC α1/β1 heterodimer (Homo sapiens, UniProt Q02108+Q02153)", "T1 construct": "expressed in transfected cells", "T1 sequence (Q02108 1-690)": "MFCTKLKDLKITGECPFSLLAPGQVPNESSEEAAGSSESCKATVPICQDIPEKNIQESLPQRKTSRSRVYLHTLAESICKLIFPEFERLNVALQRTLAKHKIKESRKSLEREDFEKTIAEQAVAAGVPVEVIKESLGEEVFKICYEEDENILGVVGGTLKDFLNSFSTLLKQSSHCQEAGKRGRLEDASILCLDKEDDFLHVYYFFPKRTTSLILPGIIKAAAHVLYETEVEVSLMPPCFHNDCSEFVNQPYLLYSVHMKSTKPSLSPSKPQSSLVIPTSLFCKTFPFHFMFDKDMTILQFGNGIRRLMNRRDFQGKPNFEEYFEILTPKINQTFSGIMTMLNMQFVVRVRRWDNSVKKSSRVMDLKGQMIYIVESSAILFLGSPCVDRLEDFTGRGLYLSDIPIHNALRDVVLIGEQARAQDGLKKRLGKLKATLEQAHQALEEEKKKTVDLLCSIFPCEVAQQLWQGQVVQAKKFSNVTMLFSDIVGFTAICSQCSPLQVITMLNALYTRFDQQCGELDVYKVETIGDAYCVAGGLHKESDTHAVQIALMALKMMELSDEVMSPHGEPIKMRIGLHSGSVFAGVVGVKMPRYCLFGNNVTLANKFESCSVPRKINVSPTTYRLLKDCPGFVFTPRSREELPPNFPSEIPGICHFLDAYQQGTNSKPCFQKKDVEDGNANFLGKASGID", "T1 sequence (Q02153 1-619)": "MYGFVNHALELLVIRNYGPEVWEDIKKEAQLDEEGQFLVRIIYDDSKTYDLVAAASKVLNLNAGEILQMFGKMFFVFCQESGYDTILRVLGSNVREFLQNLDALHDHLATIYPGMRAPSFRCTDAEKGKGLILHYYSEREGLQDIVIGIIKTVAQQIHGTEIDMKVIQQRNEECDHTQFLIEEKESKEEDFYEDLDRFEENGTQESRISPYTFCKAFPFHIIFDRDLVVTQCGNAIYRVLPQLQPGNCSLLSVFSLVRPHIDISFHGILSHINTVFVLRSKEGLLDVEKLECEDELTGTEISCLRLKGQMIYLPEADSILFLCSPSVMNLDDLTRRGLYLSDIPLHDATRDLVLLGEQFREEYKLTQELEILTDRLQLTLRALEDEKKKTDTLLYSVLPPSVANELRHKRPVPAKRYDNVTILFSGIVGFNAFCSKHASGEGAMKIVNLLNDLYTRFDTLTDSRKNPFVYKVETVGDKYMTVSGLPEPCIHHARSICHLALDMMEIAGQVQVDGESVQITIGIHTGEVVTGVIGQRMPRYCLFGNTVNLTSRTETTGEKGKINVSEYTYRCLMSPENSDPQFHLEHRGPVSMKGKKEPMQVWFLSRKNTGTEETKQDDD", "assay": "Cell-Based sGC Functional Assay (CASA Assay), cGMP generation in CHO-K1/sGC cells;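 further: reference Compound A is a published heme-dependent sGC activator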", "conditions": "maximum cGMP production of Compound A set to 100% activation, read-out: % Act. (percent activation relative to Compound A)", "how_it_was_run": "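CHO-K1 cells stably expressing human sGC α1/β1, 4×10^5/mL in EBSS with 5 mM MgCl2, 10 mM HEPES, 0.05% BSA, 0.5 mM IBMX, 2.5% DMSO; compounds 1 h at 37 °C ± 1 μM DETA-NO. cGMP by HTRF, expressed as % of reference Compound A maximum; IP and max fold induction from 4P fit.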", "units": {"Emax": "%"}, "values": [{"molecule": "CC(C)Cc1nc(-c2nc(O)c3c(n2)NC(=O)[C@@]3(C)c2ccc(F)cc2)cn2ncnc12", "note": "[Example 163A, (S)-5-(4-fluorophenyl)-4-hydroxy-2-(8-isobutyl-[1,2,4]triazolo[1,5-a]pyrazin-6-yl)-5-methyl-5,7-dihydro-6H-pyrrolo[2,3-d]pyrimidin-6-one]", "Emax": 109}, {"molecule": "Nc1nc(-c2cn3ncnc3c(CCCC(F)(F)F)n2)nc2c1C(c1ccc(Cl)cn1)(C1CC1)C(=O)N2", "note": "(stereo not shown) [Example 27A, 4-amino-5-(5-chloropyridin-2-yl)-5-cyclopropyl-2-(8-(4,4,4-trifluorobutyl)-[1,2,4]triazolo[1,5-a]pyrazin-6-yl)-5H-pyrrolo[2,3-d]pyrimidin-6(7H)-one]", "Emax": 178}, {"molecule": "CC1(c2cccc(F)c2)C(=O)Nc2nc(-c3cn4ncnc4c(CCC(F)(F)C(F)(F)F)n3)nc(O)c21", "note": "(stereo not shown) [Example 129B, 5-(3-fluorophenyl)-4-hydroxy-5-methyl-2-(8-(3,3,4,4,4-pentafluorobutyl)-[1,2,4]triazolo[1,5-a]pyrazin-6-yl)-5,7-dihydro-6H-pyrrolo[2,3-d]pyrimidin-6-one]", "Emax": 66}, {"molecule": "CC1(c2ccccn2)C(=O)Nc2nc(-c3cn4ncnc4c(CCC(F)(F)C(F)(F)F)n3)nc(O)c21", "note": "(stereo not shown) [Example 127B, 4-hydroxy-5-methyl-2-(8-(3,3,4,4,4-pentafluorobutyl)-[1,2,4]triazolo[1,5-a]pyrazin-6-yl)-5-(pyridin-2-yl)-5H-pyrrolo[2,3-d]pyrimidin-6(7H)-one]", "Emax": 129}, {"molecule": "CC1(c2cccc(F)c2)C(=O)Nc2nc(-c3cn4ncnc4c(CCC(F)(F)C(F)(F)F)n3)nc(N)c21", "note": "(stereo not shown) [Example 14B, 4-amino-5-(3-fluorophenyl)-5-methyl-2-(8-(3,3,4,4,4-pentafluorobutyl)-[1,2,4]triazolo[1,5-a]pyrazin-6-yl)-5H-pyrrolo[2,3-d]pyrimidin-6(7H)-one]", "Emax": 90}, {"molecule": "CCCc1nc(-c2nc(N)c3c(n2)NC(=O)C3(C)c2ccc(Cl)c(F)c2)cn2ncnc12", "note": "(stereo not shown) [Example 55B]", "Emax": 99}, {"molecule": "CC1(c2ccc(O)cn2)C(=O)Nc2nc(-c3cn4ncnc4c(CCCC(F)(F)F)n3)nc(N)c21", "note": "(stereo not shown) [Example 111A, 4-amino-5-(5-hydroxypyridin-2-yl)-5-methyl-2-(8-(4,4,4-trifluorobutyl)-[1,2,4]triazolo[1,5-a]pyrazin-6-yl)-5H-pyrrolo[2,3-d]pyrimidin-6(7H)-one]", "Emax": 75}, {"molecule": "Cc1ccc(C2(C3CC3)C(=O)Nc3nc(-c4cn5ncnc5c(CCCC(F)(F)F)n4)nc(N)c32)nc1", "note": "(racemic) [Example 47B, 4-amino-5-cyclopropyl-5-(5-methylpyridin-2-yl)-2-(8-(4,4,4-trifluorobutyl)-[1,2,4]triazolo[1,5-a]pyrazin-6-yl)-5H-pyrrolo[2,3-d]pyrimidin-6(7H)-one]", "Emax": 114}, {"molecule": "CC1(c2ccc(Cl)c(F)c2)C(=O)Nc2nc(-c3cn4ncnc4c(CCC(F)(F)F)n3)nc(N)c21", "note": "(stereo not shown) [Example 75B, 4-amino-5-(4-chloro-3-fluorophenyl)-5-methyl-2-(8-(3,3,3-trifluoropropyl)-[1,2,4]triazolo[1,5-a]pyrazin-6-yl)-5H-pyrrolo[2,3-d]pyrimidin-6(7H)-one]", "Emax": 136}, {"molecule": "COc1cccc(Cc2nc(-c3nc(N)c4c(n3)NC(=O)[C@@]4(C)c3ccc(F)cc3)cn3ncnc23)c1", "note": "[Example 86B, (S)-4-amino-5-(4-fluorophenyl)-2-(8-(3-methoxybenzyl)-[1,2,4]triazolo[1,5-a]pyrazin-6-yl)-5-methyl-5H-pyrrolo[2,3-d]pyrimidin-6(7H)-one]", "Emax": 126}, {"molecule": "CC1(c2nnc(C3CC3)o2)C(=O)Nc2nc(-c3cn4ncnc4c(CCCC(F)(F)F)n3)nc(N)c21", "note": "(stereo not shown) [Example 99A, 4-amino-5-(5-cyclopropyl-1,3,4-oxadiazol-2-yl)-5-methyl-2-(8-(4,4,4-trifluorobutyl)-[1,2,4]triazolo[1,5-a]pyrazin-6-yl)-5H-pyrrolo[2,3-d]pyrimidin-6(7H)-one]", "Emax": 113}, {"molecule": "CC1(c2ccc(Cl)c(F)c2)C(=O)Nc2nc(-c3cn4ncnc4c(CCCC(F)(F)F)n3)nc(N)c21", "note": "(stereo not shown) [Example 28B, 4-amino-5-(4-chloro-3-fluorophenyl)-5-methyl-2-(8-(4,4,4-trifluorobutyl)-[1,2,4]triazolo[1,5-a]pyrazin-6-yl)-5H-pyrrolo[2,3-d]pyrimidin-6(7H)-one]", "Emax": 171}, {"molecule": "CCCCc1nc(-c2nc(N)c3c(n2)NC(=O)C3(C)c2ccc(F)c(F)c2)cn2ncnc12", "note": "(stereo not shown) [Example 64B, 4-amino-2-(8-butyl-[1,2,4]triazolo[1,5-a]pyrazin-6-yl)-5-(3,4-difluorophenyl)-5-methyl-5H-pyrrolo[2,3-d]pyrimidin-6(7H)-one]", "Emax": 90}, {"molecule": "Nc1nc(-c2cn3ncnc3c(CCCC(F)(F)F)n2)nc2c1C(c1ccc(F)c(F)c1)(C1CC1)C(=O)N2", "note": "(stereo not shown) [Example 32A, 4-amino-5-cyclopropyl-5-(3,4-difluorophenyl)-2-(8-(4,4,4-trifluorobutyl)-[1,2,4]triazolo[1,5-a]pyrazin-6-yl)-5H-pyrrolo[2,3-d]pyrimidin-6(7H)-one]", "Emax": 144}, {"molecule": "Cc1ccc(C2(C)C(=O)Nc3nc(-c4cn5ncnc5c(CCCC(F)(F)F)n4)nc(N)c32)nc1", "note": "(stereo not shown) [Example 46B, 4-amino-5-methyl-5-(5-methylpyridin-2-yl)-2-(8-(4,4,4-trifluorobutyl)-[1,2,4]triazolo[1,5-a]pyrazin-6-yl)-5H-pyrrolo[2,3-d]pyrimidin-6(7H)-one]", "Emax": 67}, {"molecule": "CC1(c2ccc(Cl)c(F)c2)C(=O)Nc2nc(-c3cn4ncnc4c(CCC(F)(F)F)n3)nc(O)c21", "note": "(stereo not shown) [Example 153B, 5-(4-chloro-3-fluorophenyl)-4-hydroxy-5-methyl-2-(8-(3,3,3-trifluoropropyl)-[1,2,4]triazolo[1,5-a]pyrazin-6-yl)-5H-pyrrolo[2,3-d]pyrimidin-6(7H)-one]", "Emax": 104}, {"molecule": "CC1(c2ccccc2)C(=O)Nc2nc(-c3cn4ncnc4c(CCCC(F)(F)F)n3)nc(N)c21", "note": "(stereo not shown) [Example 37B, 4-amino-5-methyl-5-phenyl-2-(8-(4,4,4-trifluorobutyl)-[1,2,4]triazolo[1,5-a]pyrazin-6-yl)-5H-pyrrolo[2,3-d]pyrimidin-6(7H)-one]", "Emax": 112}, {"molecule": "CCCc1nc(-c2nc(N)c3c(n2)NC(=O)C3(C)c2ccc(Cl)cc2)cn2ncnc12", "note": "(stereo not shown) [Example 53A, 4-amino-5-(4-chlorophenyl)-5-methyl-2-(8-propyl-[1,2,4]triazolo[1,5-a]pyrazin-6-yl)-5H-pyrrolo[2,3-d]pyrimidin-6(7H)-one]", "Emax": 122}, {"molecule": "CC1(c2ccc(F)cn2)C(=O)Nc2nc(-c3cn4ncnc4c(CCCC(F)(F)F)n3)ncc21", "note": "(stereo not shown) [Example 176B, 5-(5-fluoropyridin-2-yl)-5-methyl-2-(8-(4,4,4-trifluorobutyl)-[1,2,4]triazolo[1,5-a]pyrazin-6-yl)-5H-pyrrolo[2,3-d]pyrimidin-6(7H)-one]", "Emax": 166}, {"molecule": "CC1(c2ccc(C(F)(F)F)cc2)C(=O)Nc2nc(-c3cn4ncnc4c(CCCC(F)(F)F)n3)nc(N)c21", "note": "(stereo not shown) [Example 24B, 4-amino-5-methyl-2-(8-(4,4,4-trifluorobutyl)-[1,2,4]triazolo[1,5-a]pyrazin-6-yl)-5-(4-(trifluoromethyl)phenyl)-5H-pyrrolo[2,3-d]pyrimidin-6(7H)-one]", "Emax": 133}, {"molecule": "CC1(c2nnc(C3(F)CC3)o2)C(=O)Nc2nc(-c3cn4ncnc4c(CCCC(F)(F)F)n3)nc(N)c21", "note": "(stereo not shown) [Example 109A, 4-amino-5-(5-(1-fluorocyclopropyl)-1,3,4-oxadiazol-2-yl)-5-methyl-2-(8-(4,4,4-trifluorobutyl)-[1,2,4]triazolo[1,5-a]pyrazin-6-yl)-5H-pyrrolo[2,3-d]pyrimidin-6(7H)-one]", "Emax": 92}, {"molecule": "CCCCc1nc(-c2nc(N)c3c(n2)NC(=O)C3(c2ccccn2)C2CC2)cn2ncnc12", "note": "(stereo not shown) [Example 116A, 4-amino-2-(8-butyl-[1,2,4]triazolo[1,5-a]pyrazin-6-yl)-5-cyclopropyl-5-(pyridin-2-yl)-5H-pyrrolo[2,3-d]pyrimidin-6(7H)-one]", "Emax": 85}]}]}
